In ChEMBL document CHEMBL5665443, “Enzyme Inhibitor Single Concentration assay results for EUbOPEN Chemogenomics Library” (2024) one finds inhibition data, which are given here for 13 compounds.

Conditions in all cases: Compound Concentration 10.0 uM, Hit No
Experiment [1] has as its target T1, Endonuclease III-like protein 1 (Homo sapiens) (UniProt P78549).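 Also: enzyme assay tracking NTHL1 cutting and release of a quenched double-stranded DNA oligo substrate, read as fluorescence at 594 nm.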
T1 sequence (whole entry): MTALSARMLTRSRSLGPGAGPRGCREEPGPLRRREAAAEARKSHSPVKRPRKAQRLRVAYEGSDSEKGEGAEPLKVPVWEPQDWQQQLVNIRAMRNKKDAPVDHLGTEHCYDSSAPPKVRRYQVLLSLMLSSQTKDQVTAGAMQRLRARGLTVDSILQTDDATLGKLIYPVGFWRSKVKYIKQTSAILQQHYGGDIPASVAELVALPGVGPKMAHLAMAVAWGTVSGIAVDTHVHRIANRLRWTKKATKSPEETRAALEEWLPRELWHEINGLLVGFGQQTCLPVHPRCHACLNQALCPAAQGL
Description: Inhibition of NTHL1 by quantifying inhibition of NTHL1-mediated cleavage and dissociation of quenched duplex DNA oligonucleotides, measured as fluorescence at 594 nm.

Experiment [2] has as its target T2, Endonuclease 8-like 2 (Homo sapiens) (UniProt Q969S2).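 Also: fluorescence at 594 nm reports NEIL2 cutting and release of a quenched double-stranded DNA oligo substrate, reduced signal read as inhibition.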
T2 sequence (whole entry): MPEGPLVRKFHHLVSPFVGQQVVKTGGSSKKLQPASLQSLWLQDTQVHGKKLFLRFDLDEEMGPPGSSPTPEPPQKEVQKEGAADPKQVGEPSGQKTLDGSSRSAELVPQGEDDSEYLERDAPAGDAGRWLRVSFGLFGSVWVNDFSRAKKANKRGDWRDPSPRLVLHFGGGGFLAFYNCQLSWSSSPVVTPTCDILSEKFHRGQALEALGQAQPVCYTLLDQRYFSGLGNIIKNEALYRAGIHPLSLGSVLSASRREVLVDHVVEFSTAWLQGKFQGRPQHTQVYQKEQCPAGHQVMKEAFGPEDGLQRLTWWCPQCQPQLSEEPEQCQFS
Description: Inhibition of NEIL2 by quantifying inhibition of NEIL2-mediated cleavage and dissociation of quenched duplex DNA oligonucleotides, measured as fluorescence at 594 nm.

Experiment [3] has as its target Endonuclease 8-like 1 (Homo sapiens) (UniProt Q96FI4).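 Also: fluorescence at 594 nm from quenched duplex DNA oligonucleotides released by NEIL1 cleavage and strand separation, reported as reduction of this enzyme activity.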
Description: Inhibition of NEIL1 by quantifying inhibition of NEIL1-mediated cleavage and dissociation of quenched duplex DNA oligonucleotides, measured as fluorescence at 594 nm.
Experiment [4] addresses T3, Single-strand selective monofunctional uracil DNA glycosylase (Homo sapiens) (UniProt Q53HV7).
T3 sequence (whole entry): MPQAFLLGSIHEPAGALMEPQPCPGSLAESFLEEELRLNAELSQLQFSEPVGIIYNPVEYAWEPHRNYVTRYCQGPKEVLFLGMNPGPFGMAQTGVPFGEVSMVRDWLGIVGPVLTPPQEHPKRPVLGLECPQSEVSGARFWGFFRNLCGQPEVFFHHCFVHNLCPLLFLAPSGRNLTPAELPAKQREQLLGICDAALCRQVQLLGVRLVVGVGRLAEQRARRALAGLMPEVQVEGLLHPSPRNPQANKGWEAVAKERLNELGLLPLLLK
Description: Inhibition of SMUG1 by quantifying inhibition of SMUG1-mediated cleavage and dissociation of quenched duplex DNA oligonucleotides, measured as fluorescence at 594 nm. To generate a functional strand incision and increase turn-over this assay is coupled to APE1.

In experiment [5] the target is Uracil-DNA glycosylase (Homo sapiens) (UniProt P13051).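 Also: UNG excision on a quenched double-stranded DNA oligo probe, with APE1 added for strand incision and turnover, read as fluorescence at 594 nm as strands separate.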
Description: Inhibition of UNG by quantifying inhibition of UNG-mediated cleavage and dissociation of quenched duplex DNA oligonucleotides, measured as fluorescence at 594 nm. To generate a functional strand incision and increase turn-over this assay is coupled to APE1.
Experiment [6] deals with N-glycosylase/DNA lyase (Homo sapiens) (UniProt O15527).
Description: Inhibition of OGG1 by quantifying inhibition of OGG1-mediated cleavage and dissociation of quenched duplex DNA oligonucleotides, measured as fluorescence at 594 nm. To generate a functional strand incision and increase turn-over this assay is coupled to APE1.
Experiment [7] addresses G/T mismatch-specific thymine DNA glycosylase (Homo sapiens) (UniProt Q13569).
Description: Inhibition of TDG by quantifying inhibition of TDG-mediated cleavage and dissociation of quenched duplex DNA oligonucleotides, measured as fluorescence at 594 nm. To generate a functional strand incision and increase turn-over this assay is coupled to APE1.

Sequence of N-glycosylase/DNA lyase (Homo sapiens) (O15527 whole entry): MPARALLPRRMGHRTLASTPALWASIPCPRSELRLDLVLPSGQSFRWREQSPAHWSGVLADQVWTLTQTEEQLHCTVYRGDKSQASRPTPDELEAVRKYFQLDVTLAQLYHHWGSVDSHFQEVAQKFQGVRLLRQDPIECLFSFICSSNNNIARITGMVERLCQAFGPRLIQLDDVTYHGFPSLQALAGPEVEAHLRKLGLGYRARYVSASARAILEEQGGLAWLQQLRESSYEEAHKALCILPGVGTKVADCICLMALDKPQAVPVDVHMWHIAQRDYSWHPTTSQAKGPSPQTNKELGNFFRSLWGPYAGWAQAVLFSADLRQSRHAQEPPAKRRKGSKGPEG
Sequence of Uracil-DNA glycosylase (Homo sapiens) (P13051 whole entry): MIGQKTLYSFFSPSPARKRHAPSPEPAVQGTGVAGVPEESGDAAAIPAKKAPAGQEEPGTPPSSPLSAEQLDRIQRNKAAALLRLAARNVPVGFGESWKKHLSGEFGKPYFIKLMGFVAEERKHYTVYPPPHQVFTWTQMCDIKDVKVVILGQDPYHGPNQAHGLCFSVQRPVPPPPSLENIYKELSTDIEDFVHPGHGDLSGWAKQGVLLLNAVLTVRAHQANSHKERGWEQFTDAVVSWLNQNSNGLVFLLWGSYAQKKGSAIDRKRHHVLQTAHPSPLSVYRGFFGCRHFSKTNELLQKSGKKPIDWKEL
Sequence of Endonuclease 8-like 1 (Homo sapiens) (Q96FI4 whole entry): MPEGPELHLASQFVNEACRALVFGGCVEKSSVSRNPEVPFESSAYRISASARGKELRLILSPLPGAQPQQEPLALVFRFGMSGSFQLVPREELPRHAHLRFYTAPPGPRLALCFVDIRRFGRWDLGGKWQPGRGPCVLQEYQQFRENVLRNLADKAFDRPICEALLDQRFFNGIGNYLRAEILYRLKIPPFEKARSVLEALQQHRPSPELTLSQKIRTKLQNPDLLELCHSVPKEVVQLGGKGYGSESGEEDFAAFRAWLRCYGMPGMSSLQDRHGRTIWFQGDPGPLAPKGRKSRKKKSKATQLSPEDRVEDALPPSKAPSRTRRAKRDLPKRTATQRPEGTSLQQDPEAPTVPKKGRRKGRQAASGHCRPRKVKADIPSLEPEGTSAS
Sequence of G/T mismatch-specific thymine DNA glycosylase (Homo sapiens) (Q13569 whole entry): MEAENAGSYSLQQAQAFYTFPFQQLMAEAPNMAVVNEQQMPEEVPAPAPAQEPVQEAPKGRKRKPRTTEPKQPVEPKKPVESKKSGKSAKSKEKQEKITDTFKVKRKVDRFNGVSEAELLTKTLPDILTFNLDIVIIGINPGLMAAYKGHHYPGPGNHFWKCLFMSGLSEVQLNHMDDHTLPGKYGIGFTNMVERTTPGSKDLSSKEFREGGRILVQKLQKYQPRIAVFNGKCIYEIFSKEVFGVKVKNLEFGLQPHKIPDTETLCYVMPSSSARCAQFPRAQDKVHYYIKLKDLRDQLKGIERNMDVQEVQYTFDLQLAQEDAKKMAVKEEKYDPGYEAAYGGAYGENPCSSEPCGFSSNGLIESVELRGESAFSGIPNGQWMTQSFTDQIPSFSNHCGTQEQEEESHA

The inhibition is the drop in the measured response relative to a control, in per cent. For the compound `O=C(Nc1ccc(Cl)cc1)Nc1cccc(-c2cccc(N3CCCC3)n2)c1`, the inhibition is -0.275% in experiment [1]; -4.23% in experiment [2]; 8.84% in experiment [3]; -0.712% in experiment [4]; -9.34% in experiment [5]; -1.14% in experiment [6].

For `CC(C)Oc1ccc(-c2nn([C@@H](C)c3oc4ccc(F)cc4c(=O)c3-c3cccc(F)c3)c3ncnc(N)c23)cc1F`, the inhibition in experiment [1] was 8.46%; in experiment [3], -4.09%; in experiment [4], 23.6%; in experiment [5] it was 6.08%; in experiment [7] it was 80.6%; in experiment [6], 8.77%.

`O=C(NCc1ccc(F)cc1)N1CCN2C(=O)OC(c3ccccc3)(c3ccccc3)C2C1` (configuration not stated): the inhibition is -0.275% in experiment [1]; 9.75% in experiment [2]; -1.09% in experiment [3]; 10.1% in experiment [4]; 6.86% in experiment [7]; 1.66% in experiment [6].

Take `NCCc1cn(S(=O)(=O)c2c(Cl)nc3sccn23)c2ccccc12`: the inhibition is -1.91% in experiment [1]; -1.62% in experiment [2]; 6.53% in experiment [3]; 3.77% in experiment [4]; -2.77% in experiment [5]; 16.8% in experiment [6].

As for `Cc1csc(NC(=O)c2cc(F)cc(Oc3cncnc3)c2)n1`, the inhibition is 4.86% in experiment [1]; 3.51% in experiment [2]; -4.5% in experiment [3]; 3.26% in experiment [4]; 5.04% in experiment [7]; -8.23% in experiment [6].

Turning to `C[C@@H](NCCCc1cccc(C(F)(F)F)c1)c1cccc2ccccc12`, the inhibition in experiment [1] is -5.41%; in experiment [2], 13.5%; in experiment [3], 1.28%; in experiment [4], 8.59%; in experiment [7], -8.6%; in experiment [6] it was -4.37%.

As for `COCC(=O)NC/C=C/c1ccc2ncnc(Nc3ccc(Oc4ccc(C)nc4)c(C)c3)c2c1`, the inhibition in experiment [1] is 1.48%; in experiment [3], -8.05%; in experiment [4], 21.7%; in experiment [5] it was 9.27%; in experiment [7] it was 11.2%; in experiment [6], 5.64%.

On to `CC[C@@H]1CN(C(=O)NCC(F)(F)F)C[C@@H]1c1cnc2cnc3[nH]ccc3n12`, for which the inhibition in experiment [1] turned out to be 2.88%; in experiment [3] it was 4.1%; in experiment [4], 20.8%; in experiment [5] it was 1.27%; in experiment [7], 36.4%; in experiment [6], 0.361%.

On to `CCCCCCCCc1ccc(CCC(N)(CO)CO)cc1`, for which the inhibition in experiment [1] is -6.87%; in experiment [2] it was -1.98%; in experiment [3] it was 4.69%; in experiment [4], 1.32%; in experiment [7], 26.4%; in experiment [6], -9.6%.

In the case of `Cc1c(-c2cc(-c3ccccc3Cl)no2)cnn1C1CCNCC1`, the inhibition in experiment [1] is 12.9%; in experiment [2], -0.35%; in experiment [3] it was 5.79%; in experiment [4] it was -1.2%; in experiment [5], -3.3%; in experiment [7] it was -8.91%.

With `CN(c1ncccc1CNc1ccnc(-c2cc3cc(Cl)ccc3[nH]2)n1)S(C)(=O)=O`, the inhibition in experiment [1] was -4.79%; in experiment [2], 1.85%; in experiment [3] it was 8.2%; in experiment [4] it was 14.4%; in experiment [5], 1.54%; in experiment [7], 37.5%.

For `CC(C)CCC[C@@H](C)[C@H]1CC[C@H]2[C@@H]3[C@H](O)C=C4C[C@@H](O)CC[C@]4(C)[C@H]3CC[C@]12C`, the inhibition in experiment [1] was -1.74%; in experiment [2], -6.22%; in experiment [3], 8.25%; in experiment [4], -3.67%; in experiment [7] it was -0.558%; in experiment [6], -2.82%.

In the case of `Cc1cn2cc(CC(=O)N3CCC4(CC3)CN(Cc3ccc(-n5nccn5)cc3Cl)C4)nc2s1`, the inhibition was 6.32% in experiment [1]; -6.88% in experiment [3]; -0.227% in experiment [4]; -1.26% in experiment [7]; -2.88% in experiment [6].
